The text below walks through data of patent US20140107015A1, “PHARAMACEUTICAL COMPOSITION FOR PREVENTING OR TREATING HUMAN IMMUNODEFICIENCY VIRUS” (priority 2012, published 2014).

The test system of series [1] is TZM-b1 cell infected with HIV-1IIIB. The conditions noted are these: for HIV-1 replication (gene reporter): 0.05, 0.1, 0.5, and 1 mg/ml, 48 hours, FIG. 38; for HIV-1 replication inhibition relative to the other samples: among COS-D, COS-T, COS-Y, COS-TD, COS-TY.
Description: Briefly, one day before infection, 5×10^4 TZM-d1 cells were seeded in a 24-well flat, and added with 100 μl of HIV-1IIIB supernatant (100 CCID50 (1 μg/ml)) to infect 50% of the cells. […] After incubation, cells were washed with cold PBS and lysed in 300 μl of lysis buffer (Promega Corp., Madison, Wis.). 20 μl of cell lysate was mixed with 100 μl of luciferase substrate (Promega) and light emission was measured for 10 seconds in a luminometer (Tecan Austria GmbH, Austria). In case of β-galactosidase assay, 100 μl of X-gal substrate was mixed with cell lysate in order to stain the HIV-1 replicated cells and light absorption was measured at the optical density of 550 nm.
In series [2] the test system is 8E5 and MOLT-4 cell lines. Briefly: Syncytia formation in co-culture of 8E5 and MOLT-4 cell lines. The following applies: 0.5 mg/ml; for number of syncytia formed with time: FIG. 36; for syncytia formation inhibiting effect compared with control group: positive control AZT-Saq. It counts as cell-based.
Description: The number of syncytia formed with time was determined. Mock was an experimental group without the sample and AZT-Saq treated with AZT and saquinavir at the same time was used as a positive control.
In series [3] the test system is C8166 cell lines infected with HIV-1RF. Briefly: Syncytia formation in C8166 cells infected with HIV-1RF (microscopy, 48 hours). It counts as cell-based. The following applies: 0.5 mg/ml; for number of syncytia formation per well versus untreated control: FIG. 22; for syncytia formation observed with a microscope: FIGS. 18, 19, 21.
Description: Since then, a degree of syncytia formation was observed by using a microscope.
When the virus infection stimulating cell fusion was analyzed, the syncytia formation was tested in order to investigate the virus infection.
Specifically, 1×10^5 C8166 cells in aliquots of 300 μl were seeded in triplicate to a 48-well plate containing 100 μl of serial dilutions of COS-amino acids (each of chitosan oligomer-amino acid conjugate) in complete RPMI-1640 medium with 5% FBS. After 2 hours of incubation, the cells were infected with 100 μl of stock supernatant of HIV-1RF diluted in complete medium at 200 CCID50 (μg/ml). The plates were incubated at 37° C. for 48 hours and the formation of syncytia was determined microscopically by using an inverted microscope (Leica Microsystems, Germany).
After 2 hours of incubation, the cells were infected with 100 μl of stock supernatant of HIV-1RF diluted in complete medium at 200 CCID50 (μg/ml). The plates were incubated at 37° C. for 48 hours and the formation of syncytia was determined microscopically by using an inverted microscope.
Series [4] deals with HIV-1 reverse transcriptase (UniProt P04585). The following applies: for reverse transcriptase (RT) activity inhibition: 0.5 mg/ml, FIG. 23.
The subject of series [5] is C8166 cell lines infected with HIV-1IIIB. The conditions noted are these: 0.5 mg/ml; for cell protecting effect from HIV-1 lysis activity (cell deaths): FIG. 17 and 20; for cell viability of HIV-1-infected C8166 cells: 48 hours after HIV-1IIIB infection, MTT, untreated cells = 100%.
Description: And then, the cytotoxicities were measured through MTT assay as time passed.
Since C8166 cell lines were sensitive about lysis effect of HIV-1 replication, the present test evaluated a degree of inhibiting HIV-1 replication based on the sensitivity of C8166 cells at lysis activity due to HIV-1 infection in the present experiment.
Since then, the supernatants of HIV-1IIIB were diluted in complete medium to yield sufficient cytopathicity, and a 100 μl aliquot was added to the wells. Plates were incubated for 24 h, 48 h and 72 h at 37° C. and after each respective incubation, 100 μl of 500 μg/ml MTT solution was added to each well and the plate was incubated for another 4 hours at 37° C. The formazan salt was dissolved in acidified propanol containing 50% DMSO and 4% triton X-100. […] The optical density of formazan formed by untreated cells was taken as 100% of viability.
Series [6] has as its system H9 cells infected with HIV-1IIIB. Briefly: RT-PCR analysis of HIV-1 gene (Vif, Env, Gag) expression. The format is cell-based. The following applies: for Vif, Env, and Gag genes expressions: 0.05, 0.1, 0.5, and 1 mg/ml, 4 days, FIG. 35; for Env gene expression: as treatment concentrations were increased.
Description: RNA in the total cells cultured was isolated by using Trizol reagent (Invitrogen Co., CA, USA). 2 μg of isolated RNA was reverse-transcripted into cDNA using an oligo-(dT) primer (Promega, Madison, Wis., USA). […] A PCR product was isolated by subjecting an electrophoresis on 1.5% agarose gel at 100 V for 10 minutes. The gel was stained with 1 mg/ml of EtBr, and then photographed under UV illumination by using AlphaEas® gel image analysis software (Alpha Innotech., San Leandro, Calif., USA).
In series [7] the test system is CEM-SS cells infected with HIV-1IIIB and HIV-1Saq. The following applies: 0.5 mg/ml; FIG. 37.
Description: Uninfected CEM-SS cells were cultured into individual wells of a 48-well microtiter plate at a density of 3×10^4 cells/well in 400 μl of medium. Diluted HIV-1IIIB and HIV-1Saq stock supernatants (100 μl) were added to appropriate wells to yield a final M.O.I of 1.0 (CCID50). […] After a total of 4 days incubation, in order to measure the amount of p24 production, HIV-1 p24 antigen capture ELISA was performed using the commercial kit (Perkin-Elmer Life Sciences, Boston, Mass.) according to the manufacturer's instruction.
The test system of series [8] is uninfected C8166 cell lines co-cultured with H9 cells infected with HIV-1IIIB. Briefly: Syncytia formation in co-culture of uninfected C8166 with H9 infected with HIV-1IIIB. The following applies: for syncytia formation in co-culture over concentrations: 0.2, 0.4, 0.6, 0.8, and 1 mg/ml, 96 hours, FIGS. 32, 33; for syncytia formation inhibition in co-culture compared with positive control group: positive control Dextran sulfate. It counts as cell-based.
Description: After 96 hours, the formed syncytia was counted by using a microscope (100×). Dextran sulfate having the syncytia formation inhibiting effect was used as a positive control group.

Series [9] relates to H9 cells infected with HIV-1IIIB. Nature of the series: Western blot analysis of p24 protein amount in cells. The following applies: 0.01 to 1 mg/ml; cultured for 4 days; FIG. 34. The format is cell-based.
Description: The total cultured cells were lysised in RIPA buffer solution (Sigma-Aldrich Corp., St. Louis, USA), centrifuged, and then the total protein amount of cell lysate was measured by using Lowry method (BioRad Laboratories, Hercules, Calif.). The aliquot supernatant including the same volume of protein (15 μg) was subjected to 10% or 12% SDS-PAGE gel, transferred on a nitrocellulose membrane (Amersham Pharmacia Biotech., England, UK), and blocked in Tris buffered saline containing 0.1% (v/v) Tween-20 (TBS-T) and 5% skim milk powder for at least 1 hour. The membrane was hybridized with mouse anti-p24 monoclonal antibody (Santa Cruz Biotechnology Inc., CA, USA). All the primary monoclonal antibodies were diluted with TBS-T at a ratio of 1:1000. The antibody was detected with Horseradish peroxidase (HRP)-conjugated anti-mouse IgG secondary antibody for 1 hour. The immune reactive protein was detected by using a chemical fluorescence ECL detecting kit (Amersham Pharmacia Biosciences, England, UK) according to the manufacturer's instruction. The western blot bands were visualized by LAS3000® chemiluminescence (Fujifilm Life Science, Tokyo, Japan).
Series [10] concerns the target T1, HIV-1 reverse transcriptase (Human immunodeficiency virus type 1 group M subtype B, UniProt P05959).
T1 construct: endogenous in cells; host or cells: C8166 and CEM-SS cells infected with HIV-1RF (lysates)
The format is biochemical. The conditions noted are these: for reverse transcriptase inhibiting activity over concentrations: 0.05, 0.1, 0.25, 0.5, and 1 mg/ml, FIGS. 26, 27.

Series [11] deals with T2, HIV-1 protease (Human immunodeficiency virus type 1 group M subtype B, UniProt P05959).
T2 construct: endogenous in cells; host or cells: C8166 and CEM-SS cells infected with HIV-1RF
Briefly: Protease assay with protease diluents of C8166 and CEM-SS infected with HIV-1RF, various concentrations. It counts as biochemical. The conditions noted are these: 0.05, 0.1, 0.25, 0.5, and 1 mg/ml; FIG. 30. As for the experimental part:
First, the HIV-1 protease inhibiting activity was measured by using the same method as in Example <3-3> except that the protease diluents of two cell lines, C8166 and CEM-SS infected with HIV-1RF.

Series [12] deals with HIV-1 protease. The following applies: 0.5 mg/ml; HIV-1RF/HIV-1IIIB; FIG. 24.
Description: The amino acid sequence of FRET peptide is made by copying p17/p24 decomposition site by HIV-1 protease on a precursor Gag protein. FRET peptide is decomposed by HIV-1 protease and fluoresces.
Since then, 20 μl of substrate was added to HIV-1 protease that is pre-cultured at the same temperature for the same period and then slowly well-mixed for 30 to 60 second, completely. Since then, the fluorescence was measured at Ex/Em=340 nm/490 nm. The inhibiting rate was estimated as a relatively value to 100 of the fluorescence of the sample without an inhibitor.
Series [13] concerns HIV-1 protease of HIV-1saq. Nature of the series: SensoLyte 520 HIV-1 protease FRET assay in saquinavir resistant HIV-1saq. It counts as biochemical. The conditions noted are these: saquinavir resistant strain; FIG. 25.
Excerpt: Meanwhile, the present inventors examined HIV-1 protease inhibiting effect using other cell lines of HIV-1. They use HIV-1saq that is a cell line having a resistance to saquinavir.
Saquinavir was used as a positive control group.
The subject of series [14] is H9 cells infected with HIV-1IIIB. Nature of the series: HIV-1 p24 antigen capture ELISA of culture supernatant. The format is cell-based. The conditions noted are these: various concentrations; FIG. 31. As to the method: In order to measure p24 amount secreted from virus, H9 cells (3×10^6 cells/ml) was cultured at 37° C. for 1 hour in the presence of HIV-1IIIB. The unbound virus was removed from the cells by washing, and re-suspended in the culture medium to be 3×10^5 cells/ml. 1 mL of aliquot was injected to 24-well plate including the medium having the same volume containing COS-E sample. In order to measure the amount of virus secreted in the medium, HIV-1 p24 antigen capture ELISA was performed according to the manufacturer's instruction using a commercial kit (Perkin-Elmer Life Sciences, Boston, Mass.).
For orientation: ELISA stands for enzyme-linked immunosorbent assay.

For series [15], the system named is C8166 cells infected with HIV-1RF. Briefly: Syncytia formation inhibition in C8166 infected with HIV-1RF, various concentrations, 96 hours. The format is cell-based. The conditions noted are these: for syncytia formation inhibition over concentrations: 0.2, 0.4, 0.6, 0.8, and 1.0 mg/ml, 96 hours, FIGS. 28, 29. As to the method: Specifically, 1×10^5C8166 cells in aliquots of 300 μl were seeded in triplicate to a 48-well plate containing 100 μl of serial dilutions of COS-N in complete RPMI-1640 medium with 5% FBS. After 2 hours of incubation, the cells were infected with 100 μl of stock supernatant of HIV-1RF diluted in complete medium at 200 CCID50 (μg/ml). The plates were incubated at 37° C. for 96 hours and the formation of syncytia was determined microscopically by using an inverted microscope (Leica Microsystems, Germany). Dextran sulfate having the syncytia formation inhibiting effect was used as a positive control group.
The syncytia formation effect was measured by using the same method as in Example <4-3>.

The mark [16] stands for this setting: sample 0.5 mg/ml, mean of HIV-1RF and HIV-1IIIB.

The IC50 is the concentration that gives 50% inhibition.

Read-outs that look alike come from different tables or passages of the source.

Consider “Chitosan oligomer-(Threonine-Tyrosine) [COS-TY]”, for which, in series [1], the “HIV-1 replication (gene reporter)” value was “inhibited the HIV-1 replication depending on the concentration” and the “HIV-1 replication inhibition relative to the other samples” value is “more effective”. Moreover, in [2], the “number of syncytia formed with time” value is given as “not increased” and the “syncytia formation inhibiting effect compared with control group” value is “high syncytia formation inhibiting effect”. In series [3], the “number of syncytia formation per well versus untreated control” value (“number … per well versus untreated control” below) was “more significantly inhibited” and the “syncytia formation observed with a microscope” value (from here on “syncytia formation observed”) is listed as “rarely formed”. For the same compound, in series [4], the “reverse transcriptase (RT) activity inhibition” value is on record as “effectively inhibited”. For the same compound, the “RT Inhibition (%)” value in series [4] (setting [16]) was 85.8%. For the same compound, the “cell protecting effect from HIV-1 lysis activity (cell deaths)” value in series [5] is listed as “high cell protecting effect”. In series [6], the “Vif, Env, and Gag genes expressions” value is given as “reduced depending on the treatment concentrations”; the Env gene expression entry is given as “significantly inhibited”. In series [7], the “p24 production inhibiting activity with later addition” value is recorded as “reduced as time passes”. In addition, in [8], the “syncytia formation in co-culture over concentrations” value is listed as “inhibited depending on the treated concentration” and the “syncytia formation inhibition in co-culture compared with positive control group” value was “more effective”. Besides, the “p24 antigen production (western blot)” value in series [9] is listed as “inhibited depending on the treatment concentrations”.

Chitosan oligomer-Aspartic acid [COS-D]: in [1], the “HIV-1 replication (gene reporter)” value was “inhibited the HIV-1 replication depending on the concentration”. In series [3], the “number … per well versus untreated control” value is “significantly inhibited” and the “syncytia formation observed” value is reported as “inhibited”. Further, in series [10] (0.05 mg/ml), the “reverse transcriptase inhibiting effect at 0.05 mg/ml” value is “no the reverse transcriptase inhibiting effect”. Further, the “reverse transcriptase activity at low concentrations” value in series [10] (0.05 mg/ml and 0.1 mg/ml) is “not inhibited”. In addition, the “reverse transcriptase inhibiting activity over concentrations” value in series [10] is “depending on the concentration”. Moreover, the “reverse transcriptase (RT) activity inhibition” value in series [4] is “effectively inhibited”. In addition, the “RT Inhibition (%)” value in [4] (setting [16]) is reported as 83.4%. Further, the “cell viability of HIV-1-infected C8166 cells” value (“cell viability” below) in [5] is 78.8%.

With `Cc1cn([C@H]2C[C@H](N=[N+]=[N-])[C@@H](CO)O2)c(=O)[nH]c1=O` [AZT, zidovudine, reference compound], the “RT Inhibition (%)” value in [4] (positive control 2 μM, mean of HIV-1RF and HIV-1IIIB) is given as 82.6%. In addition, the half-inhibitory concentration (IC50) in [4] (read-out: IC50 (RT inhibition), mean of HIV-1RF and HIV-1IIIB) is 303 µM.

For “Chitosan oligomer-(Threonine-Aspartic acid) [COS-TD]”, in series [1], the “HIV-1 replication (gene reporter)” value is “inhibited the HIV-1 replication depending on the concentration” and the “HIV-1 replication inhibition relative to the other samples” value is recorded as “more effective”. In series [2], the “number of syncytia formed with time” value was “not increased” and the “syncytia formation inhibiting effect compared with control group” value is on record as “high syncytia formation inhibiting effect”. In series [3], the “number … per well versus untreated control” value is recorded as “more significantly inhibited” and the “syncytia formation observed” value is “rarely formed”. Besides, in series [4], the “reverse transcriptase (RT) activity inhibition” value is “effectively inhibited”. For the same compound, the “IC50 (RT inhibition)” value in [4] (mean of HIV-1RF and HIV-1IIIB) worked out at 0.207 mg/mL. Moreover, the “RT Inhibition (%)” value in series [4] (setting [16]) turned out to be 85.1%. Also, in series [5], the “cell viability” value is recorded as 94.6% and the “cell protecting effect from HIV-1 lysis activity (cell deaths)” value is recorded as “high cell protecting effect”. Besides, in series [6], the “Vif, Env, and Gag genes expressions” value is recorded as “reduced depending on the treatment concentrations”; the Env gene expression result is reported as “significantly inhibited”. Further, the “p24 production inhibiting activity with later addition” value in [7] was “reduced as time passes”. In [8], the “syncytia formation in co-culture over concentrations” value is reported as “inhibited depending on the treated concentration” and the “syncytia formation inhibition in co-culture compared with positive control group” value is reported as “more effective”. For the same compound, the “p24 antigen production (western blot)” value in series [9] was “inhibited depending on the treatment concentrations”.

For the compound Chitosan oligomer-Glutamic acid [COS-E], the “HIV-1 protease inhibition over concentrations” value at HIV-1 protease [11] is reported as “depending on the concentration”. Also, in [3], the “number … per well versus untreated control” value is reported as “significantly inhibited” and the “syncytia formation observed” value is “inhibited”. In addition, in the series with HIV-1 protease [12], the HIV-1 protease inhibition entry was “effectively inhibited”. Further, the “IC50 (RT inhibition)” value in series [4] (mean of HIV-1RF and HIV-1IIIB) came out at 1.036 mg/mL. For the same compound, the “RT Inhibition (%)” value in series [4] (setting [16]) came out at 32.7%. In series [13], the “HIV-1 protease inhibition in HIV-1saq” value is reported as “effectively inhibited”. The “p24 secretion amount (production amount) in culture supernatant” value in [14] is listed as “effectively inhibited”.

For Chitosan oligomer-Asparagine [COS-N], in [3], the “number … per well versus untreated control” value was “significantly inhibited” and the “syncytia formation observed” value was “inhibited”. Moreover, the “syncytia formation inhibition over concentrations” value in series [15] is given as “depending on the concentration”. The “syncytia formation inhibition compared with positive control group” value in series [15] (positive control Dextran sulfate) is “more effective”. The “IC50 (RT inhibition)” value in series [4] (mean of HIV-1RF and HIV-1IIIB) came out at 0.954 mg/mL. For the same compound, in [4] (setting [16]), the “RT Inhibition (%)” value is 41.8%. Moreover, in series [5], the “cell viability” value was found to be 71.2%.

Turning to Chitosan oligomer-Threonine [COS-T], the “HIV-1 replication (gene reporter)” value in [1] is reported as “inhibited the HIV-1 replication depending on the concentration”. For the same compound, in [3], the “number … per well versus untreated control” value is given as “significantly inhibited” and the “syncytia formation observed” value was “inhibited”. In addition, in [15] (0.5 mg/ml or more, as compared with COS-N), the “syncytia formation inhibiting activity at 0.5 mg/ml or more” value is recorded as “very sharply increased”. Also, the “syncytia formation inhibition over concentrations” value in [15] is “depending on the concentration”. Besides, the “IC50 (RT inhibition)” value in [4] (mean of HIV-1RF and HIV-1IIIB) was found to be 0.761 mg/mL. The “RT Inhibition (%)” value in [4] (setting [16]) came to 55.3%. Also, in series [5], the “cell viability” value came to 72.3%.

Take Chitosan oligomer-Tyrosine [COS-Y]: the “HIV-1 replication (gene reporter)” value in series [1] is given as “inhibited the HIV-1 replication depending on the concentration”. In series [3], the “number … per well versus untreated control” value is recorded as “significantly inhibited” and the “syncytia formation observed” value is recorded as “inhibited”. For the same compound, the “reverse transcriptase inhibiting activity over concentrations” value in [10] is “depending on the concentration”. Further, the “reverse transcriptase (RT) activity inhibition” value in series [4] was “effectively inhibited”. Besides, the “RT Inhibition (%)” value in series [4] (setting [16]) was 83.5%.
